From patent US10730886B2, “Compound having effect of inhibiting platelet aggregation and salt thereof, and composition for preventing or treating thrombotic diseases, containing same” (SHIN POONG PHARMACEUTICAL CO., LTD., priority 2015, dated 2020)

How the values were obtained:
[1] = tested on: Human Washed Platelets (WP); test: Shear stress-induced platelet aggregation inhibition in human washed platelets (WP); assay type: cell-based; conditions: for inhibited shear stress-induced platelet aggregation in WP: 10, 25, 50 μM; for inhibition at 10 µM / inhibition at 25 µM / inhibition at 50 µM: Platelet, human WP, read-out: Degree of inhibition (%, Mean ± SEM)
Description: 1-2. Measurement of Platelet Aggregation Inhibitory Effect Using Human Washed Platelets (WP)
To separate human washed platelets (WP), blood was collected from the veins of healthy males using acid-citrate-dextrose (ACD) as an anticoagulant. At the time of blood collection, platelet activation was inhibited by treatment with 1 μM of prostaglandin E1 (PGE1). The collected blood was centrifuged at 150 g for 15 minutes to obtain PRP from the supernatant, which was centrifuged at 500 g for 10 minutes to obtain platelets. The platelets were suspended in and washed with a washing buffer (134 mM NaCl, 2.9 mM KCl, 1.0 mM MgCl2.6H2O, 10.0 mM HEPES, 5.0 mM dextrose, 12.0 mM NaHCO3, 0.34 mM Na2HPO4, 10% ACD, 0.3% bovine serum albumin, 1 μM PGE1, pH 7.4), and then re-centrifuged at 400 g for 10 minutes. The platelets thus obtained were suspended in the suspension buffer. The number of platelets in WP were counted using a hemacytometer. The platelets were diluted with the suspension buffer so as to include 3×10^8 platelets per 1 ml, and CaCl2 was added to give a final concentration of 2 mM and then used in the experiments. vWF was added to WP to give a final concentration of 10 μg/ml. WP was put on a cone-plate viscometer, and shear stress was applied to the WP at 37° C. for 3 minutes at a shear rate of 10,800 s^−1. In order to evaluate efficacy of candidate substances, prior to the induction of platelet aggregation, WP was treated with 10, 25, and 50 μM of candidate substances and incubated at 37° C. for 3 minutes using a thermomixer. After applying the shear stress, 20 μl of WP was fixed in 280 μl of the suspension buffer containing 0.5% glutaraldehyde. Then, the number of single platelets in the suspension was counted using a hemacytometer. The degree of inhibition by the candidate substance was calculated according to formula (1). No shear stress-applied group served as control, and only shear stress-applied group served as a positive control.

[2] = tested on: iron chloride (FeCl3)-induced thrombogenesis model; test: Arterial thrombosis model, FeCl3-induced carotid artery thrombogenesis; assay type: in vivo, Sprague-Dawley rats; conditions: rat, 25 mg/kg oral; for Time of thrombogenesis: FeCl3 applied 60 min after administration, occlusion time; for Fold (vs. Control): time of thrombogenesis vs. vehicle control
Description: Vehicle (DMSO: Tween 80: DW=1:2:17) or candidate substance (25 mg/kg) was orally administered to overnight-fasted male Sprague-Dawley rats (250 to 300 g). 30 minutes after administration, the rats were anesthetized by intraperitoneal injection of urethane (1.25 g/kg). The anesthetized animals were restrained on the operating table, and the body temperature was maintained using a heating pad during the entire operating procedure. An incision was made around the neck of the animals to carefully expose the right carotid artery, and the adipose tissues attached to the blood vessels were carefully removed. Doppler flow probe (0.5 mm-diameter, MA0.5PSB, Transonic System Inc., USA) was fixed to the exposed carotid artery, and a doppler flow-meter (TS420, Transonic System Inc., USA) was connected thereto. 60 minutes after oral administration, a piece of Whatman No. 1 filter paper (2 mm×1 mm) soaked with 50% FeCl3 solution was attached to the underlying blood vessels to which the probe was fixed. The filter paper was removed after 10 minutes, and the change of blood flow due to thrombus formation in the carotid artery was measured for 60 minutes after the time point of removal. The occlusion time was defined as the time at which the blood flow became zero more than one minute for the first time.

[3] = tested on: collagen-induced platelet aggregation, Human PRP; test: Collagen-induced platelet aggregation in human PRP (lumi-aggregometer); assay type: cell-based; conditions: collagen 2-5 μg/ml
Description: (§1) To investigate whether the candidate substance has inhibition selectivity for shear-stress-induced platelet aggregation, which is by a physical stimulus, […] experiment was conducted by activating platelets with physiological agonists—i.e., thrombin, collagen and ADP—to study the inhibitory effect of the candidate substance.
(§2) Human PRP (598.8 μl) was treated with 1.2 μl of the candidate substance per concentration (25, 100, 250 μM) and reacted at 37° C. for 3 minutes using a thermomixer. Then, PRP (495 μl) was put in the aggregometer cuvette and preincubated for 1 minute, followed by treatment with platelet aggregation-inducing reagent, thrombin (0.6-0.8 U/ml), collagen (2-5 μg/ml), or ADP (adenosine diphosphate, 15-20 μM) at the minimum concentration causing maximum aggregation. The degree of aggregation of the platelets was measured by a turbidity change using a lumi-aggregometer (Chrono-Log Co., USA). The turbidity of the PRP was considered as 0%, and the turbidity of the PPP was considered as 100%. During the measurement, the reaction mixture was continuously stirred at 1,000 rpm with a silicone-coated magnetic stir bar.

[4] = tested on: ADP-induced platelet aggregation, Human PRP; test: ADP-induced platelet aggregation in human PRP (lumi-aggregometer); assay type: cell-based; conditions: ADP 15-20 μM
Description: as §1, §2

[5] = tested on: human vascular endothelial cells (EA.hy926); test: Cytotoxicity in EA.hy926 cell line (MTT assay); assay type: cell-based; conditions: 24 hours
Description: 5-1. Evaluation of Cytotoxicity of Candidate Substances Using EA.hy926 Cell Line
Experiments were conducted to determine the cytotoxicity of candidate substances in human vascular endothelial cells (EA.hy926). EA.hy926 was passaged in DMEM (Dulbecco's […]) supplemented with 10% fetal bovine serum (FBS) at 5% CO2/37° C. The cells were cultured in a 96 well plate at 1×10^4 cells/well for 48 hours, washed twice with DMEM and then cultured for 24 hours. Candidate substances were prepared at final concentrations of 25 and 100 μM, applied to the wells at 200 μl per well and cultured for 24 hours. MTT assay was used to measure the absorbance at 570 nm after colorization in violet.

[6] = tested on: human liver cells (HepG2); test: Cytotoxicity in human liver cells HepG2 (WST-1); assay type: cell-based; conditions: HepG2, 250 μM, 18 hours
Description: 5-3. Evaluation of Cytotoxicity of Candidate Substances Using Human Liver Cells
Experiments were conducted to evaluate cytotoxicity in human liver cells (HepG2). HepG2 cells, which are human liver carcinoma cell lines, were cultured in DMEM (Dulbecco's minimum essential medium) supplemented with 10% FBS (fetal bovine serum) and 1% Penicillin/Streptomycin at 37° C. and 5% CO2. The cells were cultured in a 48 well plate at 4×10^4 cells/well for 24 hours and then used in the experiments. The HepG2 cells were treated with the candidate substances (250 μM) for 18 hours, and then the medium was removed and WST-1 was added, followed by shading for 3 hours for reaction. After 3 hours, the supernatant was taken and absorbance was measured at 450 nm. Cell viability was calculated by comparing the absorbance measured after adding WST-1 to HepG2 cells not treated with the candidate substances. Acetaminophen (40 mM) was used as a control.

Compound | inhibited shear stress-induced platelet aggregation in WP [1] | inhibition at 10 µM [1] | inhibition at 25 µM [1] | inhibition at 50 µM [1] | Time of thrombogenesis [2] | Fold (vs. Control) [2] | Degree of platelet aggregation (%, Mean ± SEM) ([3]; 25 μM) | Degree of platelet aggregation (%, Mean ± SEM) ([3]; 100 μM) | Degree of platelet aggregation (%, Mean ± SEM) ([3]; 250 μM) | Degree of platelet aggregation (%, Mean ± SEM) ([4]; compound 25 μM) | Degree of platelet aggregation (%, Mean ± SEM) ([4]; compound 100 μM) | Degree of platelet aggregation (%, Mean ± SEM) ([4]; compound 250 μM) | Cell viability (%) ([5]; EA.hy926, 25 μM) | Cell viability (%) ([5]; EA.hy926, 100 μM) | Cell vaibility (%) [6]
COc1cc(C(=O)Oc2c(C)occc2=O)ccc1O [Example 14, 2-Methyl-4-oxo-4H-pyran-3-yl 4-hydroxy-3-methoxybenzoate] | in a dose-dependent manner | 8 ± 1.5% | 27 ± 2.3% | 39 ± 0.6% | 615 ± 54 s | 1.7 | 82.0 ± 1.7% | 80.0 ± 1.7% | 92.0 ± 2.0% | 74.5 ± 2.5% | 75.0 ± 3.0% | 63.5 ± 5.5% | 99.6 ± 1.7% | 99.5 ± 1.6% | 87.3 ± 2.7%
COc1ccc(NC(=O)c2ccc(O)c(OC)c2)c([N+](=O)[O-])c1 [Example 15, 4-Hydroxy-3-methoxy-N-(4-methoxy-2-nitrophenyl)benzamide] | in a dose-dependent manner | 14 ± 2.5% | 26 ± 4% | 36 ± 3.2% | 816 ± 78 s | 2.3 | 86.0 ± 0.0% | 84.5 ± 4.5% | 83.5 ± 3.5% | 70.5 ± 2.5% | 68.5 ± 3.5% | 67.0 ± 4.0% | 100.8 ± 2.5% | 94.9 ± 3.3% | 89.7 ± 2.3%
O=C(c1cc(O)ccc1O)N1CCC(c2noc3ccc(F)cc23)CC1 [Example 23, (2,5-Dihydroxyphenyl)(4-(5-fluorobenzo[d]isoxazol-3-yl)piperidin-1-yl)methanone] |  |  |  |  | 674 ± 92 s | 1.9 | 82.0 ± 5.0% | 84.5 ± 4.5% | 83.5 ± 2.5% | 73.5 ± 1.5% | 66.0 ± 1.0% | 65.0 ± 0.0% | 104.3 ± 1.8% | 99.9 ± 1.9% | 82.7 ± 5.5%
